The values that follow come from patent publication US6610657B1, “Alkyl peptide amides and applications” (Promega Corporation, priority 1996, dated 2003).

*: point of attachment. Stearyl = stearyl group; stearyl = stearyl group; sulfo = O=S(=O)(O)*

For series [1], the system named is bovine caudal epididymal sperm. As to the kind of experiment: Bovine sperm motility (CASMA, forward motility index). The class given is cell-based. How it is done:
(§1) Sperm Preparation. Testes from mature bulls with intact tunica were obtained from a local slaughterhouse and sperm from caput or caudal epididymis were isolated and washed as previously described (Vijayaraghavan et al., Biol. Reprod. 32:489-500, 1985). The sperm were resuspended in buffer A (120 mM NaCl, 10 mM KCl, 10 mM Tris[hydroxymethyl]aminomethane (TRIS), pH 7.4) supplemented with 10 mM glucose and 10 mg/ml bovine serum albumin (BSA) for motility measurements. Monkey semen was obtained by electro-ejaculation and processed by procedures previously reported (Smith et al., Biol. Reprod. 54:719-727, 1996). Human semen samples were obtained from a fertility clinic at the Oregon Health Sciences University.
(§2) Sperm Motility Measurement. Head motility parameters were determined as previously described (Vijayaraghavan et al., Biol. Reprod. 54:709-718, 1996; Stephens et al., Biol. Reprod. 38:577-586, 1988). A 3-4 μL aliquot of sperm suspension (5×10^7/ml) was loaded onto a counting chamber at 37° C. After bulk fluid movement had subsided, six different locations on the slide were recorded. The videotaped segments were analyzed by a computerized image-analysis system (CASMA) as previously described (Vijayaraghavan et al., Biol. Reprod. 54:709-718, 1996; Stephens et al., Biol. Reprod. 38:577-586, 1988). This computer system measured several parameters of head motion, including forward motility. The forward Motility Index (FMI) was used as the measure of motility. FMI is a product of percent motile (%M, percent of sperm moving at velocity greater than 20 mm/sec) and average velocity (Va, the five-point smoothed average of the head positions through analysis of at least twenty frames).

For series [2], the system named is sperm. It counts as cell-based. How it is done: In the first such experiment, the vital dyes SYBR-green and rhodamine 123 were added to sperm before and after treatment with s-Ht31 in order to determine whether s-Ht31 affects sperm viability or structural integrity. Only viable, intact cells normally take up such dyes.
Series [3] relates to PKA in bovine caudal and caput sperm. In words: PKA activity of bovine caudal and caput sperm after treatment. The conditions noted are these: 50 μM. It counts as cell-based. How it is done: PKA Activity. PKA activity was assayed as previously described (Carr et al., J. Biol. Chem. 268:20729-20732, 1993) with minor changes. Whole caput or caudal sperm were treated with 2-chloro-2′-deoxyadenosine (50 μM), H-89 (50 μM), or both for 30 min. at 37° C. The sperm were then washed twice in ice cold homogenization buffer supplemented with protease inhibitors, benzamidine (10 mM), leupeptin (4 μg/ml), and N-tosyl-L-phenylalanine chloromethyl ketone (TPCK) (100 μM), and sonicated for one min. Reaction mixtures (20 microliters (μl) total) contained 250 μM Kemptide (i.e., LRRASLG), 250 μM (γ^32P) ATP, 25 mM Na3VO4, 50 mM 3-[N-morpholino] propanesulfonic acid (MOPS) (pH=7.0), 10 mM MgCl2, 0.25 mg/ml BSA and where indicated, 10 μM cAMP. Assays were initiated by addition of labeled ATP, incubated for 2 min at 30° C., and stopped by addition of 30 μl of 1 N HCl. Twenty μl of the reaction was then spotted on phosphocellulose paper followed by three washes in 75 mM phosphoric acid. The papers were then analyzed by Cerenkov counting. All determinations were made in quadruplicate.
In previous reports, initiation or stimulation of sperm motility by CDA was associated with an elevation of cAMP and an increase in PKA activity was assumed (Vijayaraghavan and Hoskins, Biol. Reprod. 34:468-77, 1986). […] Bovine sperm were incubated as described for FIGS. 14 and 15 and then assessed for PKA activity. […]

In series [4] the test system is RII binding to AKAP 110. In words: RII overlay assay on bovine sperm AKAP. The conditions noted are these: 20 μM peptide, densitometric scanning, FIG. 6. From the text: Western blotting and overlay assays. The overlay procedure is a modified Western blot procedure. Proteins were separated by SDS-polyacrylamide gel electrophoresis (SDS-PAGE) and transferred to a nylon membrane (Immobilon). After treatment with Blotto (Protein Methods, Bollag and Edelstein, eds., Wiley-Liss, New York, 1991) to prevent non-specific binding, radiolabelled RIIα or RIIβ probes were applied (Carr and Scott, Trends Biochem. Sci. 17:246-249, 1992). Recombinant RIIα was produced as previously described (Carr et al., J. Biol. Chem. 266:14188-14192, 1991; Carr et al., J. Biol. Chem. 267:13376-13382, 1992). RIIα and RIIβ were gifts from Dr. John Scott, Oregon Health Sciences University, Portland, Oreg. Two different variations of the overlay assay were used. In the first variation, recombinant RII radiolabeled by incubation with the catalytic subunit of PKA and γ^32P-ATP was used. After separation from free γ^32P-ATP, the ^32P-labeled RII (500,000 CPM/10 ml blotto) was incubated with the blocked blot for four hours followed by washing and autoradiography. […]
RII overlays were performed in the absence (lane 1) or presence of 20 μM Ht31, s-Ht31, or s-Ht31-P (lanes 2, 3 or 4, respectively). Addition of the three peptide species inhibited RII binding to AKAP110 by 100%, 85% and 0%, respectively, as determined by densitometric scanning analysis.

The test system of series [5] is alkaline phosphatase. The settings on record: cited from earlier work.
In series [6] the target is PP-2A (Homo sapiens, UniProt P67775). The conditions noted are these: cited from earlier work.
Chain of PP-2A (P67775 whole entry): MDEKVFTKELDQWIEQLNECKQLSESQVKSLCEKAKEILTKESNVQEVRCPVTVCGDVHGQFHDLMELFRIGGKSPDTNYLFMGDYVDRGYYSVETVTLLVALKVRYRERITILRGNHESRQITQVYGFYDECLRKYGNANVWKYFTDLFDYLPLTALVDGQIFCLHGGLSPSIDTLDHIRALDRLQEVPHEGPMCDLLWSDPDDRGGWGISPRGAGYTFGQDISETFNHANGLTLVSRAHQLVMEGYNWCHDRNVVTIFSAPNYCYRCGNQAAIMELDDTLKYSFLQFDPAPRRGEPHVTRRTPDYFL
For series [7], the target named is PP-1 (Homo sapiens, UniProt P62136). The conditions noted are these: cited from earlier work.
Chain of PP-1 (P62136 whole entry): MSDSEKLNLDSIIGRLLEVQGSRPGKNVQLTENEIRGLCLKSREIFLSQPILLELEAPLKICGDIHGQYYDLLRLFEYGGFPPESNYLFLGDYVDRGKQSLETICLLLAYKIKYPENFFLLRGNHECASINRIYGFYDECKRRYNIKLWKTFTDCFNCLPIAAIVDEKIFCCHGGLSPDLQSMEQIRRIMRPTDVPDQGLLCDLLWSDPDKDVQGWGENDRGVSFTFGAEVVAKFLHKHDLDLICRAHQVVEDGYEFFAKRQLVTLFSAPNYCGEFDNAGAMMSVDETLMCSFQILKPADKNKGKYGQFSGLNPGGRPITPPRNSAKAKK
Series [8] deals with insulin receptor. The settings on record: intact CHO/HIRc cells; cited from earlier work.
The test system of series [9] is monkey ejaculated sperm. As to the kind of experiment: Monkey sperm motility. It counts as cell-based, rhesus monkey. The settings on record: increasing concentrations in neat semen, 37° C., 5 and 30 min, FIG. 11. How it is done: as §1
as §2, with “The forward Motility Index (FMI) was used as the measure of motility. FMI is a product of percent motile (%M, percent of sperm moving at velocity greater than 20 mm/sec) and average velocity (Va, the five-point smoothed average of the head positions through analysis of at least twenty frames).” left out

In series [10] the target is RII, 32P-labeled recombinant regulatory subunit of PKA (isoform not given) used as overlay probe. In words: RII overlay of bovine sperm blot with 20 µM peptide, densitometric scanning.
The target in series [11] is endogenous RII isoforms of sperm (bands at about 55 kDa). As to the kind of experiment: cell-based or functional assay.

Regarding “Stearyl-DLIEEAASRPVDAVPEQVKAAGAY amide (Stearyl-DLIEEAASRPVDAVPEQVKAAGAY-NH2; listed as Homo sapiens) [s-Ht31-P]”, the “Effect on sperm motility” value in series [1] (concentrations up to 20 μM, 5 min) is “no effect”.
In the case of `C[C@@H]1CC[C@@]2(OC1)O[C@H]1[C@@H](O)[C@H]3[C@@H]4CC[C@H]5C[C@@H](O[C@@H]6O[C@H](CO)[C@H](O[C@@H]7O[C@H](CO)[C@@H](O)[C@H](O[C@@H]8OC[C@@H](O)[C@H](O)[C@H]8O)[C@H]7O[C@@H]7O[C@H](CO)[C@H](O)[C@H](O[C@@H]8O[C@H](CO)[C@@H](O)[C@H](O)[C@H]8O)[C@H]7O)[C@H](O)[C@H]6O)[C@H](O)C[C@]5(C)[C@H]4CC[C@]3(C)[C@H]1[C@@H]2C` [digitonin], the “Release of BCECF or Fura 2 from loaded sperm” value in series [2] was “caused release of these dyes”.
For `Nc1nc(Cl)nc2c1ncn2[C@H]1C[C@H](O)[C@@H](CO)O1` [CDA, 2-chloro-2′-deoxyadenosine], the “Increase of basal PKA activity” value in series [3] (30 min at 37° C., both caudal and caput sperm) is “approximately 60%”.
With `O=S(=O)(NCCNCC=Cc1ccc(Br)cc1)c1cccc2cnccc12` [H-89, N-[2-(p-bromocinnamylamino)ethyl]-5-isoquinoline-sulfonamide], the “Effect on sperm motility stimulated by CDA” value in series [1] (50 μM H-89 added 15 min prior to 50 μM CDA) is recorded as “no effect”. The inhibition at 50 µM in [1] (Bos taurus, Sperm, 0.25 h, 50 μM, 15 min, FIG. 14, read-out: Inhibition of basal sperm motility) is at most 50%. Moreover, the “Effect on PKA activity of treated sperm” value in series [3] (in the presence or absence of CDA, sperm washed before lysis) is recorded as “strongly inhibited PKA activity”.
In the case of `CCCCCCCCCCCCCCCCCC(=O)N[C@@H](CC(=O)O)C(=O)N[C@@H](CC(C)C)C(=O)N[C@H](C(=O)N[C@@H](CCC(=O)O)C(=O)N[C@@H](CCC(=O)O)C(=O)N[C@@H](C)C(=O)N[C@@H](C)C(=O)N[C@@H](CO)C(=O)N[C@@H](CCCNC(=N)N)C(=O)N[C@H](C(=O)N[C@H](C(=O)N[C@@H](CC(=O)O)C(=O)N[C@@H](C)C(=O)N[C@H](C(=O)N[C@H](C(=O)N[C@@H](CCC(=O)O)C(=O)N[C@@H](CCC(N)=O)C(=O)N[C@H](C(=O)N[C@@H](CCCCN)C(=O)N[C@@H](C)C(=O)N[C@@H](C)C(=O)NCC(=O)N[C@@H](C)C(=O)N[C@@H](Cc1ccc(O)cc1)C(=O)O)C(C)C)[C@@H](C)CC)C(C)C)C(C)C)[C@@H](C)CC)[C@@H](C)CC` [s-Ht31], in series [2], the “Effect on sperm viability / plasma membrane integrity (uptake of SYBR-green and rhodamine 123)” value is “did not decrease viability or disrupt the integrity of the sperm plasma membrane”; the “Release of BCECF or Fura 2 from loaded sperm” value is “did not compromise the integrity of the plasma membrane”.
Consider “DLIEEAASRIVDAVIEQVKAAGAY (listed as Homo sapiens) [Ht31]”, for which the “Inhibition of RII binding to AKAP110” value in series [4] is 100%.
Turning to “TRDIYETDYYRK-amide (Stearyl-TRDIY(sulfo)ETDY(sulfo)Y(sulfo)RK-NH2; not fully specified; printed as TRDIYETDYYRK-amide; listed as Homo sapiens)”, the “Effect on activity of alkaline phosphatase” value in series [5] was “did not have an effect”. Moreover, the “Effect on activity of PP-2A” value in [6] is “did not have an effect”. Moreover, in series [7], the “Effect on activity of PP-1” value was “did not have an effect”. Moreover, the “Increase in insulin-stimulated receptor autophosphorylation” value in [8] is given as 4.5 fold.
“Stearyl-YETLLIETASSLVKNAIQLSIE amide (Stearyl-YETLLIETASSLVKNAIQLSIE-NH2; listed as Homo sapiens) [s-AKAP79]”: the “Effect on motility of monkey-ejaculate sperm” value in series [9] was “inhibited sperm motility in a concentration- and time-dependent manner”.
Turning to stearyl-DLIEEAASRPVDAVPEQVKAAGAY-NH2 [s-Ht31-P: Stearyl-… amide], the percent inhibition of RII binding to AKAP110 in series [10] was determined as 0%.
Stearyl-DLIEEAASRIVDAVIEQVKAAGAY-NH2 (not fully specified) [s-Ht31: Stearyl-… amide] registered a concentration of s-Ht31 needed to produce 50% inhibition of bovine sperm motility, five minutes post-treatment in [11] of 1 µM. For the same molecule, in series [10], the percent inhibition of RII binding to AKAP110 came out at 85%.
With DLIEEAASRIVDAVIEQVKAAGAY [Ht31 (anchor inhibiting peptide, non-stearated)], the percent inhibition of RII binding to AKAP110 in series [10] was 100%.

The term inhibition denotes the change of the read-out against control, counted positive when it falls.
